Assay results reported in ChEMBL document CHEMBL3044907, “Sensitivity of Fusarium verticillioides isolates from rice to a novel cyanoacrylate fungicide” (Crop Prot, 2012).
In brackets after ≈: the same amount, converted by molar mass.

Assays:
Fusarium verticillioides [1] = assay: (§1) Fungicidal activity against Fusarium verticilliodes isolate N03 in rice seeds harvested from bakane diseased plants assessed as number of seedlings abnormally elongated or exhibiting symptoms of damping-off at 12.5 ug/ml at 30 degC incubated for 72 hr measured after 3 days under greenhouse trials (reference value: 36.1%); type: functional
Fusarium verticillioides [2] = assay: as §1, with “N04” for “N03”, “8.33” for “12.5”, “14.5%)” for “36.1%)”; type: functional
Fusarium verticillioides [3] = assay: as §1, with “YZ02” for “N03”, “29.8%)” for “36.1%)”; type: functional
Fusarium verticillioides [4] = assay: as §1, with “JS05” for “N03”, “8.33” for “12.5”, “36.4%)” for “36.1%)”; type: functional
Fusarium verticillioides [5] = assay: as §1, with “YZ26” for “N03”, “25” for “12.5”, “49.3%)” for “36.1%)”; type: functional
Fusarium verticillioides [6] = assay: as §1, with “JS06” for “N03”, “6.25” for “12.5”, “25.2%)” for “36.1%)”; type: functional
Fusarium verticillioides [7] = assay: as §1, with “YZ13” for “N03”, “6.25” for “12.5”, “26.8%)” for “36.1%)”; type: functional
Fusarium verticillioides [8] = assay: as §1, with “YZ03” for “N03”, “6.25” for “12.5”, “21.3%)” for “36.1%)”; type: functional
Fusarium verticillioides [9] = assay: as §1, with “JS03” for “N03”, “8.33” for “12.5”, “15.8%)” for “36.1%)”; type: functional
Fusarium verticillioides [10] = assay: as §1, with “JS01” for “N03”, “6.25” for “12.5”, “32.5%)” for “36.1%)”; type: functional
Fusarium verticillioides [11] = assay: as §1, with “YZ12” for “N03”, “8.33” for “12.5”, “45.8%)” for “36.1%)”; type: functional
Fusarium verticillioides [12] = assay: as §1, with “YZ13” for “N03”, “25” for “12.5”, “26.8%)” for “36.1%)”; type: functional
Fusarium verticillioides [13] = assay: as §1, with “YZ22” for “N03”, “8.33” for “12.5”, “22.5%)” for “36.1%)”; type: functional
Fusarium verticillioides [14] = assay: as §1, with “YZ26” for “N03”, “49.3%)” for “36.1%)”; type: functional
Fusarium verticillioides [15] = assay: Fungicidal activity against Fusarium verticilliodes assessed as mycelial growth inhibition at 25 degC after 3 to 5 days; type: functional, organism-based
Fusarium verticillioides [16] = assay: as §1, with “JS08” for “N03”, “25” for “12.5”, “13.0%)” for “36.1%)”; type: functional
Fusarium verticillioides [17] = assay: as §1, with “YZ08” for “N03”, “19.8%)” for “36.1%)”; type: functional
Fusarium verticillioides [18] = assay: as §1, with “JS06” for “N03”, “8.33” for “12.5”, “25.2%)” for “36.1%)”; type: functional
Fusarium verticillioides [19] = assay: as §1, with “JS08” for “N03”, “8.33” for “12.5”, “13.0%)” for “36.1%)”; type: functional
Fusarium verticillioides [20] = assay: as §1, with “YZ11” for “N03”, “33.7%)” for “36.1%)”; type: functional
Fusarium verticillioides [21] = assay: as §1, with “JS01” for “N03”, “32.5%)” for “36.1%)”; type: functional
Fusarium verticillioides [22] = assay: as §1, with “JS07” for “N03”, “33.8%)” for “36.1%)”; type: functional
Fusarium verticillioides [23] = assay: as §1, with “YZ07” for “N03”, “43.2%)” for “36.1%)”; type: functional
Fusarium verticillioides [24] = assay: as §1, with “YZ12” for “N03”, “45.8%)” for “36.1%)”; type: functional
Fusarium verticillioides [25] = assay: as §1, with “JS04” for “N03”, “8.33” for “12.5”, “16.2%)” for “36.1%)”; type: functional
Fusarium verticillioides [26] = assay: as §1, with “YZ13” for “N03”, “26.8%)” for “36.1%)”; type: functional
Fusarium verticillioides [27] = assay: as §1, with “JS04” for “N03”, “25” for “12.5”, “16.2%)” for “36.1%)”; type: functional
Fusarium verticillioides [28] = assay: as §1, with “YZ05” for “N03”, “6.25” for “12.5”, “33.3%)” for “36.1%)”; type: functional
Fusarium verticillioides [29] = assay: as §1, with “JS09” for “N03”, “6.25” for “12.5”, “32.6%)” for “36.1%)”; type: functional
Fusarium verticillioides [30] = assay: as §1, with “N01” for “N03”, “6.25” for “12.5”, “27.4%)” for “36.1%)”; type: functional
Fusarium verticillioides [31] = assay: as §1, with “JS06” for “N03”, “25” for “12.5”, “25.2%)” for “36.1%)”; type: functional
Fusarium verticillioides [32] = assay: as §1, with “YZ07” for “N03”, “6.25” for “12.5”, “43.2%)” for “36.1%)”; type: functional

SMILES: CCOC(=O)/C(C#N)=C(/N)c1ccccc1
- Activity (Fusarium verticillioides [1]): 0%
- Activity (Fusarium verticillioides [2]): 0%
- Activity (Fusarium verticillioides [3]): 0%
- Activity (Fusarium verticillioides [4]): 0.2%
- Activity (Fusarium verticillioides [5]): 0.2%
- Activity (Fusarium verticillioides [6]): 1.7%
- Activity (Fusarium verticillioides [7]): 0.8%
- Activity (Fusarium verticillioides [8]): 2%
- Activity (Fusarium verticillioides [9]): 0%
- Activity (Fusarium verticillioides [10]): 1.6%
- Activity (Fusarium verticillioides [11]): 1.4%
- Activity (Fusarium verticillioides [12]): 0%
- Activity (Fusarium verticillioides [13]): 0.5%
- Activity (Fusarium verticillioides [14]): 0%
- EC50 (Fusarium verticillioides [15]): 0.316 µg/mL (≈ 1.46 µM)
- Activity (Fusarium verticillioides [16]): 0%
- Activity (Fusarium verticillioides [17]): 0%
- Activity (Fusarium verticillioides [18]): 0%
- Activity (Fusarium verticillioides [19]): 0%
- Activity (Fusarium verticillioides [20]): 0%
- Activity (Fusarium verticillioides [21]): 0%
- Activity (Fusarium verticillioides [22]): 0%
- Activity (Fusarium verticillioides [23]): 0%
- Activity (Fusarium verticillioides [24]): 0%
- Activity (Fusarium verticillioides [25]): 1%
- Activity (Fusarium verticillioides [26]): 0%
- Activity (Fusarium verticillioides [27]): 0%
- Activity (Fusarium verticillioides [28]): 0.5%
- Activity (Fusarium verticillioides [29]): 4.2%
- Activity (Fusarium verticillioides [30]): 0.8%
- Activity (Fusarium verticillioides [31]): 0%
- Activity (Fusarium verticillioides [32]): 1.6%
